Test results from patent US11066414B2, “Cot modulators and methods of use thereof” (Gilead Sciences, Inc., priority 2015, dated 2021).
Where two headings read alike, the source gives them in different places.

Assays:
[1] = target: Human Cot (Homo sapiens (Human), UniProt P41279); test: High Throughput Cot Biochemical Assay; conditions: Cot HTRF (TR-FRET) biochemical assay
[2] = tested on: TNFα; test: Cot Monocyte TNFα Cell Based Assay
[3] = Homo sapiens, Monocyte, read-out: EC50 TNF, LPS-stimulated human monocytes, TNFα
[4] = read-out: EC50 TNF, LPS-stimulated human monocytes, TNFα

Sequence of Human Cot (P41279 30-397): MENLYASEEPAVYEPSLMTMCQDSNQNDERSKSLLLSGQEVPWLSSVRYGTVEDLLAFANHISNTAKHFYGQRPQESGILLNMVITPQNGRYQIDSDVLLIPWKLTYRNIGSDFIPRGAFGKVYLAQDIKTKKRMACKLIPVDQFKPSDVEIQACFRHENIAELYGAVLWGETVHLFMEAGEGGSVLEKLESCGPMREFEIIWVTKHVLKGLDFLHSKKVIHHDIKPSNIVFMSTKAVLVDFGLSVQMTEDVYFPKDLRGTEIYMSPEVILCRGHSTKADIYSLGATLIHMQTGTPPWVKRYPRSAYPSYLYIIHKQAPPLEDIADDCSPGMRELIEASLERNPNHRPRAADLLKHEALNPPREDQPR

| IC50 ([1]; IC50 HTRF) | EC50 [2, 3] | IC50 ([1]; read-out: IC50 HTRF) | EC50 [2, 4] | SMILES |
| --- | --- | --- | --- | --- |
| 9 nM | 154 nM | – | – | Cc1nc(F)ccc1[C@H](Nc1cc(C#N)c2ncc(C#N)c(NCC(C)(C)c3ccccc3)c2c1)c1cn(C2(C(F)(F)F)CC2)nn1 [Example 614, (S)-6-(((6-fluoro-2-methylpyridin-3-yl)(1-(1-(trifluoromethyl)cyclopropyl)-1H-1,2,3-triazol-4-yl)methyl)amino)-4-((2-methyl-2-phenylpropyl)amino)quinoline-3,8-dicarbonitrile] |
| 7 nM | 189 nM | – | – | Cc1ncsc1[C@H](Nc1cc(Cl)c2ncc(C#N)c(NCC(C)(C)C)c2c1)c1cn(C2(C(F)F)CC2)nn1 [Example 619, (R)-8-chloro-6-(((1-(1-(difluoromethyl)-cyclopropyl)-1H-1,2,3-triazol-4-yl)(4-methylthiazol-5-yl)methyl)amino)-4-(neopentylamino)quinoline-3-carbonitrile] |
| 102 nM | 1000 nM | – | – | Cc1scnc1[C@H](Nc1cc(Cl)c2ncc(C#N)c(NCC(C)(C)C)c2c1)c1cn(C2(C(F)F)CC2)nn1 [Example 620, (S)-8-chloro-6-(((1-(1-(difluoromethyl)cyclo-propyl)-1H-1,2,3-triazol-4-yl)(5-methylthiazol-4-yl)methyl)amino)-4-(neopentylamino)quinoline-3-carbonitrile] |
| 1 nM | 12 nM | – | – | Cc1nc(F)ccc1[C@H](Nc1cc(C#N)c2ncc(C#N)c(NCC(C)(C)C)c2c1)c1cn(C2(C3CC3)CC2)nn1 [Example 621, (S)-6-(((1-([1,1′-bi(cyclopropan)]-1-yl)-1H-1,2,3-triazol-4-yl)(6-fluoro-2-methylpyridin-3-yl)methyl)amino)-4-(neopentylamino)quinoline-3,8-dicarbonitrile] |
| 1 nM | 24 nM | – | – | Cc1nc(F)ccc1[C@H](Nc1cc(C#N)c2ncc(C#N)c(NCC(C)(C)C)c2c1)c1cn([C@@H]2C[C@@H]2F)nn1 [Example 622, 6-(((S)-(6-fluoro-2-methylpyridin-3-yl)(1-((1R,2S)-2-fluorocyclopropyl)-1H-1,2,3-triazol-4-yl)methyl)amino)-4-(neopentylamino)quinoline-3,8-dicarbonitrile] |
| 1 nM | 27 nM | – | – | Cc1nc(F)ccc1[C@H](Nc1cc(C#N)c2ncc(C#N)c(NCC(C)(C)C)c2c1)c1cn([C@@H](C)CF)nn1 [Example 623, 6-(((S)-(6-fluoro-2-methylpyridin-3-yl)(1-((S)-1-fluoropropan-2-yl)-1H-1,2,3-triazol-4-yl)methyl)amino)-4-(neopentylamino)quinoline-3,8-dicarbonitrile] |
| 11 nM | 1000 nM | – | – | Cc1nc(F)ccc1[C@H](Nc1cc(Cl)c2ncc(C#N)c(NCC(C)(C)C)c2c1)c1cn(C2(C(=O)O)CC(F)(F)C2)nn1 [Example 624, (S)-1-(4-(((8-chloro-3-cyano-4-(neopentylamino)quinolin-6-yl)amino)(6-fluoro-2-methylpyridin-3-yl)methyl)-1H-1,2,3-triazol-1-yl)-3,3-difluorocyclobutane-1-carboxylic acid] |
| 2 nM | 26 nM | – | – | Cc1nc(F)ccc1[C@H](Nc1cc(C#N)c2ncc(C#N)c(NCC(C)(C)C)c2c1)c1cn(C(C)(C)CF)nn1 [Example 625, (S)-6-(((1-{1-fluoro-2-methylpropan-2-yl)-1H-1,2,3-triazol-4-yl)(6-fluoro-2-methylpyridin-3-yl)methyl)amino)-4-(neopentylamino)quinoline-3,8-dicarbonitrile] |
| – | – | 5 nM | 35 nM | CC(C)(C)CNc1c(C#N)cnc2c(C#N)cc(N[C@H](c3cn(C4(C(F)(F)F)CC4)nn3)c3ccc(F)c4cnccc34)cc12 [Example 626] |
| 4 nM | 46 nM | – | – | CC(C)(C)CNc1c(C#N)cnc2c(C#N)cc(N[C@H](c3cn(C4(C(F)(F)F)CC4)nn3)c3ccc(F)c4ncccc34)cc12 [Example 627, (S)-6-(((8-fluoroquinolin-5-yl)(1-(1-(trifluoro-methyl)cyclopropyl)-1H-1,2,3-triazol-4-yl)methyl)amino)-4-(neopentylamino)quinoline-3,8-dicarbonitrile] |
| 450 nM | 1000 nM | – | – | CC(C)(C)CNc1c(C#N)cnc2c(Cl)cc(N[C@H](c3cn(C4(C(F)(F)F)CC4)nn3)c3cncc4ccccc34)cc12 [Example 628, (S)-8-chloro-6-((isoquinolin-4-yl(1-(1-(trifluoromethyl)cyclopropyl)-1H-1,2,3-triazol-4-yl)methyl)amino)-4-(neopentylamino)quinoline-3-carbonitrile] |
| 181 nM | 1000 nM | – | – | CC(C)(C)CNc1c(C#N)cnc2c(Cl)cc(N[C@@H](c3cnc4ccccc4c3)c3cn(C4(C(F)(F)F)CC4)nn3)cc12 [Example 629, (S)-8-chloro-4-(neopentylamino)-6-((quinolin-3-yl(1-(1-(trifluoromethyl)cyclopropyl)-1H-1,2,3-triazol-4-yl)methyl)amino)quinoline-3-carbonitrile] |
| 2 nM | 32 nM | – | – | Cn1ccc2c([C@H](Nc3cc(C#N)c4ncc(C#N)c(NCC(C)(C)C)c4c3)c3cn(C4(C(F)(F)F)CC4)nn3)cccc2c1=O [Example 631, (S)-6-(((2-methyl-1-oxo-1,2-dihydroisoquinolin-5-yl)(1-(1-(trifluoromethyl)-cyclopropyl)-1H-1,2,3-triazol-4-yl)methyl)amino)-4-(neopentylamino)quinoline-3,8-dicarbonitrile] |
| 28 nM | 267 nM | – | – | Cc1nc(F)ccc1[C@H](Nc1cc(Cl)c2ncc(C#N)c(NCC(C)(C)C#N)c2c1)c1cn(C2(C(F)(F)F)CC2)nn1 [Example 633, (S)-8-chloro-4-((2-cyano-2-methylpropyl)amino)-6-(((6-fluoro-2-methylpyridin-3-yl)(1-(1-(trifluoromethyl)cyclopropyl)-1H-1,2,3-triazol-4-yl)methyl)amino)quinoline-3-carbonitrile] |
| – | – | 2 nM | 43 nM | Cc1nc(F)ccc1[C@H](Nc1cc(C#N)c2ncc(C#N)c(NCC(C)(C)C)c2c1)c1cn(CC(F)F)nn1 [Example 634, (S)-6-(((1-(2,2-dinuoroethyl)-1H-1,2,3-triazol-4-yl)(6-fluoro-2-methylpyridin-3-yl)methyl)amino)-4-(neopentylamino)quinoline-3,8-dicarbonitrile] |
| 3 nM | 60 nM | – | – | Cc1nc(F)ccc1[C@H](Nc1cc(Cl)c2ncc(C#N)c(NCC(C)(C)CCl)c2c1)c1cn(C2(C(F)(F)F)CC2)nn1 [Example 635, (S)-8-chloro-4-((3-chloro-2,2-dimethylpropyl)amino)-6-(((6-fluoro-2-methylpyridin-3-yl)(1-(1-(trifluoromethyl)cyclopropyl)-1H-1,2,3-triazol-4-yl)methyl)amino)quinoline-3-carbonitrile] |
| 69 nM | 720 nM | – | – | Cc1nc(F)ccc1[C@H](Nc1cc(Cl)c2ncc(C#N)c(NCC3(C(F)F)CC3)c2c1)c1cn(C2(C(F)(F)F)CC2)nn1 [Example 636, (S)-8-chloro-4-(((1-(difluoromethyl)cyclopropyl)-methyl)amino)-6-(((6-fluoro-2-methylpyridin-3-yl)(1-(1-(trifluoromethyl)cyclopropyl)-1H-1,2,3-triazol-4-yl)methyl)amino)quinoline-3-carbonitrile] |
| 3 nM | 85 nM | – | – | Cc1nc(F)ccc1[C@H](Nc1cc(C#N)c2ncc(C#N)c(NCC(C)(C)CCl)c2c1)c1cn(C2(C(F)(F)F)CC2)nn1 [Example 637, (S)-4-((3-chloro-2,2-dimethylpropyl)amino)-6-(((6-fluoro-2-methylpyridin-3-yl)(1-(1-(trifluoromethyl)-cyclopropyl)-1H-1,2,3-triazol-4-yl)methyl)amino)-quinoline-3,8-dicarbonitrile] |
| 58 nM | 858 nM | – | – | Cc1nc(F)ccc1[C@H](Nc1cc(C#N)c2ncc(C#N)c(NCC3(C(F)F)CC3)c2c1)c1cn(C2(C(F)(F)F)CC2)nn1 [Example 638, (S)-4-(((1-(difluoromethyl)-cyclopropyl)methyl)amino)-6-(((6-fluoro-2-methylpyridin-3-yl)(1-(1-(trifluoromethyl)cyclopropyl)-1H-1,2,3-triazol-4-yl)methyl)amino)quinoline-3,8-dicarbonitrile] |
| 58 nM | 806 nM | – | – | Cc1nc([C@H](Nc2cc(Cl)c3ncc(C#N)c(NCC(C)(C)C)c3c2)c2cn(C3(C(F)F)CC3)nn2)c(C)o1 [Example 639, (S)-8-chloro-6-(((1-(1-(difluoromethyl)cyclopropyl)-1H-1,2,3-triazol-4-yl)(2,5-dimethyloxazol-4-yl)methyl)amino)-4-(neopentylamino)quinoline-3-carbonitrile] |
| 3 nM | 65 nM | – | – | Cc1ncsc1[C@H](Nc1cc(C#N)c2ncc(C#N)c(NCC(C)(C)C)c2c1)c1cn(C2(C(F)F)CC2)nn1 [Example 640, (R)-6-(((1-(1-(difluoromethyl)-cyclopropyl)-1H-1,2,3-triazol-4-yl)(4-methylthiazol-5-yl)methyl)amino)-4-(neopentylamino)quinoline-3,8-dicarbonitrile] |
| – | – | 55 nM | 811 nM | Cc1scnc1[C@H](Nc1cc(C#N)c2ncc(C#N)c(NCC(C)(C)C)c2c1)c1cn(C2(C(F)F)CC2)nn1 [Example 641] |
| 5 nM | 182 nM | – | – | Cc1nc(F)ccc1[C@H](Nc1cc(C#N)c2ncc(C#N)c(NCC(C)(C)C)c2c1)c1cn(C2(C(=O)N(C)C)CC2)nn1 [Example 642, (S)-1-(4-(((3,8-dicyano-4-(neopentylamino)quinolin-6-yl)amino)(6-fluoro-2-methylpyridin-3-yl)methyl)-1H-1,2,3-triazol-1-yl)-N,N-dimethylcyclopropane-1-carboxamide] |
| – | – | 5 nM | 1000 nM | Cc1nc(F)ccc1[C@H](Nc1cc(Cl)c2ncc(C#N)c(NCC(C)(C)C)c2c1)c1nnn(C2CC2)c1I [Example 643, (S)-8-chloro-6-(((1-cyclopropyl-S-iodo-1H-1,2,3-triazol-4-yl)(6-lluoro-2-methylpyridin-3-yl)methyl)amino)-4-(neopentylamino)quinoline-3-carbonitrile] |
